# From a melting point compilation (Tetko et al.; mined from patent text by program, amines drawn as free bases though some values may be those of a salt)
row,Compound,melting point
1,Cc1c(C=NO)c2cc(Br)ccc2n1-c1ccc(O)cc1,209 to 211 °C
2,C[Si](C)(C)C#Cc1cnn(-c2ccnc3cc(Cl)ccc23)c1,106 to 112 °C
3,O=C(NCCc1cccs1)c1cc(Cl)ccc1Cl,99 to 100 °C
4,O=[N+]([O-])C=C(Cl)SCCCNS(=O)(=O)c1ccccc1,105 to 106 °C
5,c1nnc(N2CCN(Cc3ccc4c(c3)OCO4)CC2)s1,111 to 112 °C
6,CNc1nc(-c2cccc(N(C)C(=O)c3ccccc3)c2)c2cc(OC)c(OC)cc2n1,198 to 200 °C
7,CCOc1cc(-c2cc(C(F)F)n3ncc(C(=O)Nc4cccc(S(=O)(=O)NC5CC5)c4)c3n2)ccc1C(F)(F)F,213 °C
8,COc1ccc(S(=O)(=O)Nc2cccnc2Nc2ccccc2)c(OC)c1,176 to 178 °C
9,C1=C(N2c3ccccc3Sc3ccccc32)N(C2=NCCC2)CC1,199 to 201 °C
10,CCCCOc1ccc(S(C)(=O)=O)cc1C(=O)Nc1c(C(N)=O)nn(CCN2CCOCC2)c1CC,182 to 185 °C
11,O=C(O)C1Cc2[nH]c3ccc(OCc4ccccc4)cc3c2C1 (stereo not given),161 to 163 °C
12,CC(C)(C)n1nn[nH]c1=S,92 to 94 °C
13,CCCCc1nc(O)cc(CC(=O)OC)n1,83 to 85 °C
14,CN1CC(c2ccccc2)=C(O)C1=O,245 to 250 °C
15,Cc1oc2c(C)c(Cc3ccccc3)c(C3CC(=O)NC(=O)C3)cc2c1C,138 °C
16,CCCc1nn(C)c2c(=O)[nH]c(Cc3ccc4[nH]c(=O)ccc4c3)nc12,> 300 °C
17,Nc1ccc(C(=O)c2ccccn2)cc1[N+](=O)[O-],186 to 187 °C
18,COC(=O)c1ccc(-c2coc3ccc(-c4nnc(C)o4)cc23)cc1,208 to 209 °C
19,CCCCCCCCCC(C)(C)c1cc(-c2cc3ccc(C(=O)O)cc3o2)ccc1OC,150 °C
20,N#Cc1cc(N)ccc1N1CCCC1,113 °C
21,C[C@@H]1CCCC[C@H]1C(=O)O (relative stereo),51 to 53 °C
22,O=C(NC(=O)c1nnn(Cc2ccccc2)c1NC(=O)c1ccccc1)c1ccccc1,171 to 173 °C
23,Cc1ccc(C)c(C(=O)Nc2ccc(C(=O)N3Cc4ccccc4Cc4ccccc43)cc2)c1,213 to 216 °C
24,CCOc1nc(C)nc2oc(-c3ccco3)nc12,104 to 106 °C
25,COC(=O)Cc1c(Cl)ncnc1OC,64 °C

row,Compound,melting point
1,COC(=O)c1ccc(CCC(C)NCC(O)c2cc3ccccc3o2)cc1 (stereo not given),104 to 108 °C
2,CCOC(=O)c1ncn2c1CN(C)C(=O)c1cc(C#N)ccc1-2,184 °C
3,CCCCCCCCCCCC(=O)OC1C(C)C(c2ccccc2)NC(c2ccccc2)C1C (stereo not given),74 to 76 °C
4,CC(C)C(CO)NC(=O)c1nsc2ccc(-n3c(=O)cc(C(F)(F)F)n(C)c3=O)cc12 (stereo not given),120 °C
5,Cc1c(F)c(N2CCNCC2)c(C)c2c1c(=O)c(C(=O)O)cn2C1CC1,185 to 187 °C
6,CCn1cc(C(=O)O)c(=O)c2cc(F)c(N3CCC4CCC(C3)N4)cc21 (stereo not given),147 to 150 °C
7,Cc1c(N2CCC(N)C2)c(F)cc2c(=O)c(C(=O)O)cn(C3CC3)c12 (stereo not given),187 to 190 °C
8,Cn1cc(SCc2ccccc2)c(=O)c(-c2cccc(C(F)(F)F)c2)c1,121 to 122 °C
9,CCC(C)(C)NCC(O)c1ccc(O)c(O)c1OC (stereo not given),172 to 174 °C
10,O=C1CCC2=C(c3ccccc3)c3ccccc3C2N1 (stereo not given),213 to 216 °C
11,CC(=O)Oc1c(C)c(C)c2c(c1C)CC(C)(CO)O2 (stereo not given),98 to 99 °C
12,Cc1oc(-c2ccccc2)nc1COc1ccc2cc(/C=C/C=O)oc2c1,132 to 133 °C
13,COC(=O)c1cn(-c2ccc(Oc3ccc(C)cc3O)cc2)nn1,148 to 151 °C
14,Cc1c[nH]c2c1C(=O)CC(c1ccccc1Cl)C2 (stereo not given),201 to 209 °C
15,CC1(C)Oc2ccsc2C(NC(=O)c2ccncc2)C1O (stereo not given),223 to 234 °C
16,CCNc1nc(-c2ccc(NC(=O)NCc3cccnc3)cc2)ccc1C(=O)O,216 to 218 °C
17,CCOC(=O)c1cnc2nn(CC)cc2c1OCC,111 to 113 °C
18,c1ccc2c(c1)CNc1cccnc1O2,172 to 174 °C
19,O=C(O)c1cnc2cc(O)cc(O)c2c1,> 260 °C
20,CC(O)c1ncnc(N2CCN(S(=O)(=O)N(C)C)CC2)n1 (stereo not given),124 to 125 °C
21,CC(C)(CCn1ccnc1)NCC(O)c1ccc(O)c(CO)c1 (stereo not given),135 to 137 °C
22,COc1cccc([C@H]2O[C@H](CC(=O)N[C@H](CCSC)C(=O)O)C(=O)N(CC(C)(C)C)c3ccc(Cl)cc32)c1OC,161 to 162 °C
23,O=[N+]([O-])c1cc(Cl)cc(C(c2cc(Cl)cc([N+](=O)[O-])c2O)C(F)(F)F)c1O,135 °C
24,CCn1cc(C(=O)O)c(=O)c2cc(F)c(N3CCC(CN)C3)nc21 (stereo not given),217 to 218 °C
25,CC(C)(C)c1csc(-c2cc3cc(OCc4ccccc4Cc4nnn[nH]4)ccc3o2)n1,80 to 84 °C
